From patent US11571418B2, “Platinum compounds that inhibit constitutive STAT3 signaling and induce cell cycle arrest and apoptosis of malignant cells” (H. LEE MOFFITT CANCER CENTER AND RESEARCH INSTITUTE, INC., priority 2011, dated 2023)

Assays:
[1] = target: T1, E2F1 (Homo sapiens, UniProt Q01094); assay: In vitro E2F1 DNA-binding activity assay, EMSA with DHFR promoter probe; settings: cell lysates pre-incubated with compound before DHFR promoter probe
T1 construct: made in house; host or cells: Sf-9 insect cells infected with baculovirus
T1 sequence (Q01094 whole entry, species assumed): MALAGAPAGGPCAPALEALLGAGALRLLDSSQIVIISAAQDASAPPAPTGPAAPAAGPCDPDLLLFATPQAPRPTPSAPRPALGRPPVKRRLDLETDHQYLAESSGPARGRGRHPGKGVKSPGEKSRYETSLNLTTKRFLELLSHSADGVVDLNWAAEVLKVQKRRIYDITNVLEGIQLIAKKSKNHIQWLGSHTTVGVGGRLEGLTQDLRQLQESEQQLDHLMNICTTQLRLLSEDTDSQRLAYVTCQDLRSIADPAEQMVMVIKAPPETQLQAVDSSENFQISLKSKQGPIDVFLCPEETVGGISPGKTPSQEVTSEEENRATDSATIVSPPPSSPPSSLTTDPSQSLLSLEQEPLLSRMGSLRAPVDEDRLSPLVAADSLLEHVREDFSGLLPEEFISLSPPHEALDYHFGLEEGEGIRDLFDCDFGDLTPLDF
Description: FIGS. 1A-1E. Inhibition of in vitro Stat3 DNA-binding activity by a platinum complex. Nuclear extracts or cell lysates containing activated Stat1, Stat3 and Stat5, or E2F1 prepared from NIH3T3/hEGFR that are stimulated with EGF or Sf-9 insect cells that are infected with baculovirus expressing Stat1, Stat3, Stat5, or E2F1, respectively, were treated with or without the indicated concentrations of platinum complex, PLATINUM-401 or Cisplatin, for 30 min at room temperature prior to incubation with radiolabeled oligonucleotide probes, and subjected to EMSA analysis. (FIG. 1A) (i) Stat1 and Stat3 binding activities to hSIE probe, (ii) Stat1 and Stat5 binding activities to MGFe probe, and (iii) plot of % oligonucleotide probe-STAT:STAT complexes versus concentration of PLATINUM-401. […] Positions of STAT: STAT-DNA complexes in gel are labeled. In (A) to (C), the control lanes represent DMSO (vehicle)-treatment.
In control studies, the effect of PLATINUM-401 was evaluated on the DNA-binding activity of the E2F1 protein that is unrelated to STATs.

[2] = tested on: normal NIH 3T3 fibroblasts; assay: Ki67 proliferation index by immunohistochemistry; type: cell-based, mouse; settings: no persistent Stat3 activity
Description: FIGS. 5A and 5B. Evaluation for effects of PLATINUM-401 on cellular constitutive Stat3 activation and cell proliferation. Normal or malignant cells were treated with or without PLATINUM-401 and nuclear extracts were prepared for Stat3 DNA-binding activity assay with hSIE probe, or cells were processed for nuclear Ki67 immunohistochemistry. (FIG. 5A) EMSA analysis of Stat3 DNA-binding activity; (FIG. 5B) Graphical representations of quantified nuclear staining of Ki-67 proliferation index. Stat3:Stat3-DNA complexes in gels are labeled. The Ki-67 proliferation indexes were calculated as the percent positive tumor cells relative to the total number of cells. […]
Immunohistochemistry—The indirect peroxidase-antiperoxidase test was performed on cytospins prepared from cell lines (control and treated). […] The presence of Ki-67 nuclear staining was calculated as percent positive tumor cells in relation to the total number of cells.
The inventors further examined the biological effects of PLATINUM-401 and determined whether any changes might correlate with the inhibition of constitutively-active Stat3. […]
Changes in cell proliferation induced by treatment with PLATINUM-401 were assayed in terms of Ki67 proliferation index by immunohistochemistry. The presence of Ki-67 nuclear staining was calculated as the percent positive tumor cells in relation to the total number of cells.

Structure (SMILES): CC(O)CN1CCN(CC(C)O)CC1 (centres unmarked) [PLATINUM-401]
- effect on E2F1 DNA-binding activity [1]: no significant effect
- proliferation (Ki67 index) [2]: lack of effect
